Results reported in article PMC7784547 (Bioorganic Chemistry, 2021).
“Also recorded” adds a separate entry of the source. Where two headings read alike, the source gives them in different places.

Legend:
[1] = tested on: influenza A/PR/8/34 (H1N1) virus; design: species or system KM mice; conditions: mouse, in vivo; for body weight of infected mice: po
[2] = tested on: Influenza A/Puerto Rico/8/34 (H1N1)
[3] = tested on: Influenza A/Puerto Rico/8/34 (H1N1); assay: microbe, parasite or virus in culture; conditions: H1N1|PR8, MDCK, read-out: IC50 ± SD, PR8
A/Aichi/2/68 (H3N2) = assay: microbe, parasite or virus in culture; assay type: cell-based; conditions: read-out: IC50 ± SD, H3N2
in vitro = conditions: dog
influenza A virus = assay type: cell-based
[4] = tested on: influenza A/PR/8/34 (H1N1) virus; assay type: cell-based
[5] = tested on: A/Puerto Rico/8/34 (H1N1) influenza virus; assay type: cell-based
[6] = tested on: influenza virus A/PR/8/34 (H1N1)
hemagglutinin (HA) = hemagglutinin (HA) (Influenza A virus, UniProt P03452)
[7] = mouse, in vivo, po, 10 mg/kg
[8] = tested on: Influenza A/Puerto Rico/8/34 (H1N1); assay type: cell-based, influenza A virus
SARS-CoV-2 = conditions: read-out: IC50 against SARS-CoV-2, Full-time treatment; cited from earlier work

Chain of hemagglutinin (HA) (P03452 18-342 limits assumed): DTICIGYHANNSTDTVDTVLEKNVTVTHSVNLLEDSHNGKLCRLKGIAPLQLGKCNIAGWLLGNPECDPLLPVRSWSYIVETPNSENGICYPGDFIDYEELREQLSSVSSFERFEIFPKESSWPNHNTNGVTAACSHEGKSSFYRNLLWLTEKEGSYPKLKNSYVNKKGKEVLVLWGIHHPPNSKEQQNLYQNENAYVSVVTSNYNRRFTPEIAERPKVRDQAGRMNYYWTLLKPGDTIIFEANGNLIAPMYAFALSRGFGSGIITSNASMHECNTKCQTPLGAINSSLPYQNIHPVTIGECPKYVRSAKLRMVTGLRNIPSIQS
Chain of hemagglutinin (HA) (P03452 344-565 limits assumed): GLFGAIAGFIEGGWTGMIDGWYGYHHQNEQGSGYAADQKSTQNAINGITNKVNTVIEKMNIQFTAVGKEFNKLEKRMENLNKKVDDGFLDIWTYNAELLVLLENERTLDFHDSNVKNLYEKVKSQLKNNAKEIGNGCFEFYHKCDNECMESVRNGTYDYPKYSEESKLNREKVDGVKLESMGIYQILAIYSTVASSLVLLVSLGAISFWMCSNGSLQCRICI

With CCOC(=O)C1=C[C@@H](OC(CC)CC)[C@H](NC(C)=O)[C@@H](N)C1 [oseltamivir phosphate, reference compound] as the compound, how does the “body weight of infected mice” value [1] read?
The value was “slowly increased”.

For CC(C)CCC[C@@H](C)[C@H]1CC[C@H]2[C@@H]3CC=C4C[C@@H](OCC(=O)N[C@@H](CCCCN)C(=O)N[C@@H](CCCCN)C(=O)N[C@@H](Cc5c[nH]c6ccccc56)C(=O)N[C@@H](CCCCN)C(N)=O)CC[C@]4(C)[C@H]3CC[C@]12C [S-KKWK, reference compound], which IC50 ([2]; /Puerto Rico/8/34, 48 h) is on record?
The IC50 was 1.85 ± 0.92 µM.

Which IC50 [3] does the source give for C=Cc1c(C)c2cc3nc(c4c5[nH]c(cc6nc(cc1[nH]2)C(C)=C6CC)c(C)c5C(=O)C4)[C@@H](CCC(=O)O)[C@@H]3C [PPa, pyropheophorbide a, reference compound] here?
Its IC50 is 0.32 ± 0.28 µM.

What about the IC50 (A/Aichi/2/68 (H3N2); Influenza A virus, H3N2, MDCK) of the same compound?
The IC50 was 1.23 ± 1.1 µM.

And the CC50 (in vitro)?
Its CC50 is 140 ± 3.61 µM.

What does the source list for protoporphyrin IX [PPIX]?
survival rate and mean survival time of infected mice [1]: apparently prolonged; also recorded: apparently increased; body weight of infected mice [1]: slowly increased; antiviral activity with increasing added lipids (influenza A virus): decreased along with the increase of lipids; inhibitory effect by time of addition (viral titer in supernatant) [4]: better inhibitory effect; IC50 ([2]; read-out: IC50 ± SD, PR8): 1.88 ± 0.85 µM; IC50 (A/Aichi/2/68 (H3N2)): 1.49 ± 0.66 µM; CC50 (Vero-E6 cells): 120.8 ± 0.95 µM; NP expression (green fluorescence) after treatment [5]: apparently decreased; IC50 ([6]; read-out: IC50 ± SD, After infection): > 17.8 µM; IC50 ([6]; read-out: IC50 ± SD, During infection): 8.87 ± 3.07 µM; IC50 ([6]; read-out: IC50 ± SD, Pretreatment of cell): > 17.8 µM; IC50 ([6]; read-out: IC50 ± SD, Pretreatment of virus): 1.88 ± 0.85 µM; hemagglutinin inhibition (viral adsorption to target cells) (hemagglutinin (HA)): negative results; CC50 (MDCK cells): 230 ± 4.53 µM; CC90 (MDCK cells): 316 µM; time of maximum peak of PPIX in plasma [7]: about 2 h; antiviral activity with red light versus no light [8]: no significant difference

Which IC50 (SARS-CoV-2) does the source give for CCN(CC)CCCC(C)Nc1ccnc2cc(Cl)ccc12 (centres unmarked) [chloroquine] here?
Its IC50 is 10 µM.
